From US9597407B2, “Targeted antimicrobial moieties” (C3 Jian, Inc., priority 2009, dated 2017)
“Also recorded” adds a separate entry of the source.

Experiments:
[1] = tested on: microorganisms; experiment: Morphology, biofilm and growth disruption by peptides (Table 5); type: cell-based; set-up: key: A: Peptide aggregates; B: Less hyphal formation; Clumps; Diffuse clumps and small polyps; F: Diffuse growth; H: Thin; I: Growth inhibition; Microcolony formation; Rippled; Small polyps; Thick; W: Halo formation on top, microlonies on bottom
Text: In certain embodiments peptides that induce alterations in phenotype or other biological activities can also be used as antimicrobial effector moieties.

[2] = tested on: bacteria; experiment: Binding of targeting peptides to microorganisms (Table 3); settings: preferably 1x PBS; for Target(s): microorganism bound by the targeting peptide, binding in aqueous buffers chosen by peptide solubility; for Target(s) (microorganisms bound by the targeting peptide): peptide binding in aqueous buffers that varied depending on peptide solubility

Substance	Target(s) [2]	Organism, effect ([1]; S. epidermidis)	Organism, effect ([1]; MRSA)	Target(s) (microorganisms bound by the targeting peptide) [2]	also measured
PF-276 (LDLALSTNSLNLEGFSF; Peptide with targeting and/or antimicrobial activity)	S. epidermidis	–	–	–	Organism, effect ([1]; M. luteus): M. luteus (M)
PF-292 (SFVSTTVRLIFEESKRYKF; Peptide with targeting and/or antimicrobial activity)	S. epidermidis; also recorded: B. subtilis; also recorded: B. fragilis	S. epidermidis (C)	–	–	Organism, effect ([1]; B. subtilis): B. subtilis (C)
PF-294 (DFLVNFLWFKGELNWGKKRYK; Peptide with targeting and/or antimicrobial activity)	S. epidermidis; also recorded: C. difficile	S. epidermidis (C)	–	–	–
PF-297 (ISKGIDDIVYVINKILSIGNIFKIIKRK; Peptide with targeting and/or antimicrobial activity)	S. epidermidis; also recorded: B. subtilis; also recorded: B. fragilis	S. epidermidis (C)	–	–	Organism, effect ([1]; B. subtilis): B. subtilis (C)
PF-301 (GIVLIGLKLIPLLANVLN; Peptide with targeting and/or antimicrobial activity)	C. difficile	S. epidermidis (C)	–	–	Organism, effect ([1]; B. subtilis): B. subtilis (C)
PF-313 (YITSHKNARAIIKKFERDEILEEVITHYLNRK; Peptide with targeting and/or antimicrobial activity)	S. epidermidis; also recorded: C. difficile	S. epidermidis (C)	–	–	–
PF-344 (DERLPEAKAIRNFNGSVMVLGR; Peptide with targeting and/or antimicrobial activity)	B. subtilis; also recorded: C. jejuni	–	–	–	Organism, effect ([1]; E. coli): E. coli (A)
PF-350 (LAVILRAIVY; Peptide with targeting and/or antimicrobial activity)	S. epidermidis; also recorded: E. coli; also recorded: E. faecalis; also recorded: C. jeikeium; also recorded: C. jejuni	S. epidermidis (C)	MRSA (C)	–	Organism, effect ([1]; E. coli): E. coli (C)
PF-395 (YCVPLGNMGNMNNKIW; Peptide with targeting and/or antimicrobial activity)	–	S. epidermidis (C)	MRSA (C)	S. epidermidis; also recorded: E. coli; also recorded: P. aeruginosa; also recorded: S. pneumoniae; also recorded: E. faecalis; also recorded: C. jeikeium; also recorded: C. jejuni	Organism, effect ([1]; E. coli): E. coli (R)
PF-396 (LIYTILASLGVLTVLQAILGREPKAVKA; Peptide with targeting and/or antimicrobial activity)	–	S. epidermidis (S)	MRSA (C)	S. epidermidis; also recorded: E. coli; also recorded: P. aeruginosa; also recorded: C. albicans; also recorded: E. faecalis; also recorded: C. jeikeium	Organism, effect ([1]; E. coli): E. coli (C); Organism, effect ([1]; E. faecalis): E. faecalis (C)
PF-397 (VEDLMEDLNA; Peptide with targeting and/or antimicrobial activity)	–	S. epidermidis (C)	–	S. epidermidis and MRSA and S. pneumoniae and E. faecalis and C. jejuni	–
PF-401 (YWLSRVTTGHSFAFEKPVPLSLTIK; Peptide with targeting and/or antimicrobial activity)	–	S. epidermidis (C)	MRSA (C)	S. epidermidis and E. coli and P. aeruginosa and MRSA and E. faecalis and C. jejuni	Organism, effect ([1]; E. coli): E. coli (R); Organism, effect ([1]; E. faecalis): E. faecalis (C)
PF-403 (LLSTEQLLKYYDGETFDGFQLPSNE; Peptide with targeting and/or antimicrobial activity)	–	S. epidermidis (M)	MRSA (M)	E. coli; also recorded: P. aeruginosa; also recorded: S. pneumoniae; also recorded: E. faecalis; also recorded: C. jeikeium; also recorded: C. jejuni	Organism, effect ([1]; E. coli): E. coli (R)
PF-404 (VLYFQATVV; Peptide with targeting and/or antimicrobial activity)	–	S. epidermidis (M)	MRSA (M)	S. epidermidis; also recorded: E. coli; also recorded: P. aeruginosa; also recorded: E. faecalis; also recorded: C. jeikeium; also recorded: C. jejuni	–
PF-405 (LVRIEVDDLEEWYERNFI; Peptide with targeting and/or antimicrobial activity)	–	–	MRSA (M)	S. epidermidis; also recorded: E. coli; also recorded: E. faecalis	–
PF-406 (YLEMNADYLSNMDIFDELWEKYLENNK; Peptide with targeting and/or antimicrobial activity)	–	S. epidermidis (C)	MRSA (M)	E. coli; also recorded: C. jejuni	–
PF-408 (YCVPLGNMGNMNNKIW; Peptide with targeting and/or antimicrobial activity)	–	S. epidermidis (M)	MRSA (M)	S. epidermidis and E. coli and P. aeruginosa and MRSA and E. faecalis and C. jeikeium and C. jejuni	–
PF-413 (TFAGSIKIGVPDLVHVTFNCKR; Peptide with targeting and/or antimicrobial activity)	–	S. epidermidis (C)	MRSA (C)	P. aeruginosa; also recorded: C. albicans; also recorded: C. jejuni	Organism, effect ([1]; E. coli): E. coli (S)
PF-414 (LLNKKLE; Peptide with targeting and/or antimicrobial activity)	–	–	–	E. coli; also recorded: C. albicans; also recorded: C. jeikeium	Organism, effect ([1]; S. pneumoniae): S. pneumoniae (H)
PF-416 (SKAGLYGKIERSDKRE; Peptide with targeting and/or antimicrobial activity)	–	–	–	S. pneumoniae; also recorded: C. jeikeium	Organism, effect ([1]; S. pneumoniae): S. pneumoniae (H)
PF-417 (DSYFRS; Peptide with targeting and/or antimicrobial activity)	–	S. epidermidis (M)	MRSA (M)	S. epidermidis; also recorded: C. jeikeium; also recorded: C. jejuni	Organism, effect ([1]; S. pneumoniae): S. pneumoniae (M)
PF-421 (KHCFEITDKTDVV; Peptide with targeting and/or antimicrobial activity)	–	–	–	C. jeikeium	Organism, effect ([1]; S. pneumoniae): S. pneumoniae (H)
PF-423 (AGKKERLLSFREQFLNKNKKK; Peptide with targeting and/or antimicrobial activity)	–	–	–	S. epidermidis; also recorded: M. luteus; also recorded: E. coli; also recorded: S. pneumoniae; also recorded: E. faecalis; also recorded: C. jeikeium	Organism, effect (morphology, biofilm and growth disruption) ([1]; S. pneumoniae): S. pneumoniae (H)
PF-424 (IAAFVTSRAFSDTVSPI; Peptide with targeting and/or antimicrobial activity)	–	–	–	S. epidermidis and C. albicans and MRSA	Organism, effect (morphology, biofilm and growth disruption) ([1]; S. pneumoniae): S. pneumoniae (H)
PF-425 (MMELVLKTIIGPIVVGVVLRIVDKWLNKDK; Peptide with targeting and/or antimicrobial activity)	–	–	–	S. epidermidis and M. luteus and E. coli and P. aeruginosa and C. albicans and MRSA and S. pneumoniae and C. jeikeium	Organism, effect (morphology, biofilm and growth disruption) ([1]; C. albicans): C. albicans (A); Organism, effect (morphology, biofilm and growth disruption) ([1]; C. jejuni): C. jejuni (D); Organism, effect (morphology, biofilm and growth disruption) ([1]; E. coli): E. coli (C); Organism, effect (morphology, biofilm and growth disruption) ([1]; E. faecalis): E. faecalis (D); Organism, effect (morphology, biofilm and growth disruption) ([1]; MRSA): MRSA (D); Organism, effect (morphology, biofilm and growth disruption) ([1]; P. aeruginosa): P. aeruginosa (A); Organism, effect (morphology, biofilm and growth disruption) ([1]; S. epidermidis): S. epidermidis (D); Organism, effect (morphology, biofilm and growth disruption) ([1]; S. pneumoniae): S. pneumoniae (D)
